Source: US20120238576A1, “Triazine Derivatives and their Therapeutical Applications” (CALIFORNIA CAPITAL EQUITY, LLC, priority 2009, published 2012)

Biological target: c-SRC (h) (Homo sapiens, UniProt P12931)
Experiment: Src Kinase Assay (33P-ATP filter-binding, Cdc2 peptide substrate)
Type: biochemical
Details: compound at 10 μM; c-SRC (h) 5-10 mU, 40 minutes at room temperature
Experimental: This example illustrated Src Kinase Assays. Briefly, in a final reaction volume of 25 μL, c-SRC (h) (5-10 mU) is incubated with 8 mM MOPS pH 7.0, 0.2 mM EDTA, 250 μM KVEKIGEGTYGVVYK (Cdc2 peptide), 10 mM MgAcetate and [g-33P-ATP] (specific activity approx. 500 cpm/pmol, concentration as required). The reaction is initiated by the addition of the MgATP mix. After incubation for 40 minutes at room temperature, the reaction is stopped by the addition of 5 μL of a 3% phosphoric acid solution. 10 μL of the reaction is then spotted onto a P30 filtermat and washed three times for 5 minutes in 75 mM phosphoric acid and once in methanol prior to drying and scintillation counting.

Sequence of c-SRC (h) (P12931 whole entry): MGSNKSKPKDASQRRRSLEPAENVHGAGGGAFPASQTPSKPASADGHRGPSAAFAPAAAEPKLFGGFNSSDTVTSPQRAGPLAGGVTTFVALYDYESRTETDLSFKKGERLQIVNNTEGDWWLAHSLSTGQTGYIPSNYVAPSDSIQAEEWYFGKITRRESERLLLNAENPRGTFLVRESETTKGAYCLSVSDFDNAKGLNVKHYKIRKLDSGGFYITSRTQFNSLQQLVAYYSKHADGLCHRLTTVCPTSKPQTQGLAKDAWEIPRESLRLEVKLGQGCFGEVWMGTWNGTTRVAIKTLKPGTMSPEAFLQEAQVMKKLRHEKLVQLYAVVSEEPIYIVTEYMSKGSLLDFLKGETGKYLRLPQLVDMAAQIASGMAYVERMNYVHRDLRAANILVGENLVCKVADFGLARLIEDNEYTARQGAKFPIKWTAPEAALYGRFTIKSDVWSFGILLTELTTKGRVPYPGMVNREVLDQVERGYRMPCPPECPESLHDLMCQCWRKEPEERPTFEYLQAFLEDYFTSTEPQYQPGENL

**Q.** With `CCc1nc(Nc2ncc(C(=O)Nc3c(C)cccc3Cl)s2)nc(N2CCN(CCO)CC2)n1` [Example 23] as the molecule, how does the inhibition at 10 µM read?
**A.** > 90%

**Q.** Which inhibition at 10 µM does the source give for `COCC(C)Nc1ncnc(Nc2cc(CC(=O)Nc3cccc(F)c3)[nH]n2)n1` (centres unmarked) [Example 111] here?
**A.** < 50%

**Q.** Which inhibition at 10 µM does the source give for `Cc1nc(Nc2ncc(C(=O)Nc3c(C)cccc3Cl)s2)nc(N2CCC(CO)CC2)n1` [Example 11] here?
**A.** > 90%

**Q.** With `CCc1nc(Nc2ncc(C(=O)Nc3c(C)cccc3Cl)s2)nc(N2CCOCC2)n1` [Example 25] as the molecule, how does the inhibition at 10 µM read?
**A.** > 90%

**Q.** `Cc1nc(Nc2ncc(C(=O)Nc3c(C)cccc3Cl)s2)nc(N2CCN(c3cccc(C(F)(F)F)c3)CC2)n1` [Example 18] was tested. Which inhibition at 10 µM did it give?
**A.** > 90%

**Q.** `CCc1nc(Nc2ncc(C(=O)Nc3c(C)cccc3Cl)n2C)nc(N2CCN(C)CC2)n1` [Example 59] was tested. Which inhibition at 10 µM did it give?
**A.** > 90%

**Q.** Which inhibition at 10 µM does the source give for `CN1CCN(c2ncnc(Nc3cc(CC(=O)NCc4ccc(F)cc4)[nH]n3)n2)CC1` [Example 108] here?
**A.** < 50%

**Q.** With `CCc1nc(NCCO)nc(Nc2ncc(C(=O)Nc3c(C)cccc3Cl)s2)n1` [Example 27] as the molecule, how does the inhibition at 10 µM read?
**A.** > 90%

**Q.** Which inhibition at 10 µM does the source give for `CN1CCN(c2ncnc(Nc3cc(CC(=O)Nc4cccc(F)c4)[nH]n3)n2)CC1` [Example 104] here?
**A.** < 50%

**Q.** With `Cc1nc(Nc2ncc(C(=O)Nc3c(C)cccc3Cl)s2)nc(N2CCN(Cc3ccncc3)CC2)n1` [Example 10] as the molecule, how does the inhibition at 10 µM read?
**A.** > 90%

**Q.** For `Cc1cccc(Cl)c1NC(=O)c1cnc(Nc2nc(-c3ccccc3)nc(N3CCN(CCO)CC3)n2)s1` [Example 31], which inhibition at 10 µM is on record?
**A.** > 90%

**Q.** `CCc1nc(Nc2ncc(C(=O)Nc3c(C)cccc3Cl)s2)nc(N2CCN(c3ccncc3)CC2)n1` [Example 24] was tested. Which inhibition at 10 µM did it give?
**A.** > 90%

**Q.** How did the inhibition at 10 µM turn out when `CCc1nc(NCCN(CC)CC)nc(Nc2ncc(C(=O)Nc3c(C)cccc3Cl)s2)n1` [Example 94] was run?
**A.** > 90%

**Q.** `CCc1nc(NCCN(C)C)nc(Nc2ncc(C(=O)Nc3ccccc3)s2)n1` [Example 79] was tested. Which inhibition at 10 µM did it give?
**A.** 50 to 90%

**Q.** `Cc1cccc(Cl)c1NC(=O)c1cnc(Nc2nc(CC(C)C)nc(N3CCN(CCO)CC3)n2)s1` [Example 34] was tested. Which inhibition at 10 µM did it give?
**A.** > 90%

**Q.** With `Cc1nc(NCCCn2ccnc2)nc(Nc2ncc(C(=O)Nc3c(C)cccc3Cl)s2)n1` [Example 20] as the molecule, how does the inhibition at 10 µM read?
**A.** > 90%

**Q.** `Cc1cccc(Cl)c1NC(=O)Cc1cc(Nc2ncnc(N3CCN(C)CC3)n2)n[nH]1` [Example 106] was tested. Which inhibition at 10 µM did it give?
**A.** < 50%

**Q.** With `Cc1nc(Nc2ncc(C(=O)Nc3c(C)cccc3Cl)o2)nc(N2CCNCC2)n1` [Example 38] as the molecule, how does the inhibition at 10 µM read?
**A.** > 90%

**Q.** `CCc1nc(Nc2nnc(C(=O)Nc3c(C)cccc3Cl)o2)nc(N2CCN(CCO)CC2)n1` [Example 52] was tested. Which inhibition at 10 µM did it give?
**A.** < 50%

**Q.** `Cc1nc(Nc2ncc(C(=O)Nc3c(C)cccc3Cl)s2)nc(N2CCNC(=O)C2)n1` [Example 19] was tested. Which inhibition at 10 µM did it give?
**A.** > 90%

**Q.** `CCc1nc(NCCN(C)C)nc(Nc2ncc(C(=O)NC(C)C)s2)n1` [Example 67] was tested. Which inhibition at 10 µM did it give?
**A.** < 50%

**Q.** Which inhibition at 10 µM does the source give for `CCc1nc(NCCN(C)C)nc(Nc2ncc(C(=O)Nc3c(C)cc(C)cc3C)s2)n1` [Example 75] here?
**A.** > 90%

**Q.** With `Cc1cccc(Cl)c1NC(=O)Cc1cc(Nc2ncnc(OCCCN(C)C)n2)n[nH]1` [Example 107] as the molecule, how does the inhibition at 10 µM read?
**A.** < 50%

**Q.** `Cc1nc(Nc2ncc(C(=O)Nc3c(C)cccc3Cl)s2)nc(N2CCN(c3ccccc3)CC2)n1` [Example 17] was tested. Which inhibition at 10 µM did it give?
**A.** > 90%

**Q.** With `CCc1nc(NCCCN2CCOCC2)nc(Nc2ncc(C(=O)Nc3c(C)cccc3Cl)s2)n1` [Example 28] as the molecule, how does the inhibition at 10 µM read?
**A.** > 90%

**Q.** With `CCc1nc(Nc2ncc(C(=O)Nc3c(C)cccc3Cl)o2)nc(N2CCN(CCO)CC2)n1` [Example 40] as the molecule, how does the inhibition at 10 µM read?
**A.** > 90%

**Q.** With `O=C(Cc1cnc(Nc2ncnc(N3CCCCC3)n2)s1)Nc1cccc(F)c1` [Example 89] as the molecule, how does the inhibition at 10 µM read?
**A.** < 50%

**Q.** How did the inhibition at 10 µM turn out when `CN(C)CCCOc1ncnc(Nc2cc(CC(=O)NCc3ccc(F)cc3)[nH]n2)n1` [Example 109] was run?
**A.** < 50%

**Q.** `Cc1nc(Nc2ncc(C(=O)Nc3c(C)cccc3Cl)s2)nc(N2CCNCC2)n1` [Example 13] was tested. Which inhibition at 10 µM did it give?
**A.** > 90%

**Q.** With `CN1CCN(c2ncnc(Nc3ncc(CC(=O)Nc4cccc(F)c4)s3)n2)CC1` [Example 88] as the molecule, how does the inhibition at 10 µM read?
**A.** < 50%

**Q.** For `Cc1nc(Nc2ncc(C(=O)Nc3c(C)cccc3Cl)s2)nc(N2CCN(C)CC2)n1` [Example 7], which inhibition at 10 µM is on record?
**A.** > 90%

**Q.** With `CN(C)CCN(C)c1ncnc(Nc2cc(CC(=O)Nc3cccc(F)c3)[nH]n2)n1` [Example 110] as the molecule, how does the inhibition at 10 µM read?
**A.** < 50%

**Q.** How did the inhibition at 10 µM turn out when `CCc1nc(Nc2ncc(CC(=O)Nc3c(C)cccc3Cl)s2)nc(N2CCN(CCO)CC2)n1` [Example 93] was run?
**A.** < 50%

**Q.** With `O=C(Cc1cc(Nc2ncnc(Nc3ccccc3)n2)n[nH]1)Nc1cccc(F)c1` [Example 113] as the molecule, how does the inhibition at 10 µM read?
**A.** < 50%

**Q.** `Cc1nc(Nc2ncc(C(=O)Nc3c(C)cccc3Cl)s2)nc(N2CCN(CCC#N)CC2)n1` [Example 14] was tested. Which inhibition at 10 µM did it give?
**A.** > 90%

**Q.** How did the inhibition at 10 µM turn out when `Cc1cccc(Cl)c1NC(=O)Cc1cnc(Nc2ncnc(N3CCN(C)CC3)n2)s1` [Example 92] was run?
**A.** < 50%

**Q.** Which inhibition at 10 µM does the source give for `CN(C)CCCOc1ncnc(Nc2cc(CC(=O)Nc3cccc(F)c3)[nH]n2)n1` [Example 105] here?
**A.** < 50%

**Q.** With `CCc1nc(NCCN(C)C)nc(Nc2ncc(C(=O)Nc3c(C)cccc3Cl)s2)n1` [Example 26] as the molecule, how does the inhibition at 10 µM read?
**A.** > 90%

**Q.** `CCc1nc(NCCN(C)C)nc(Nc2ncc(C(=O)NC3CC3)s2)n1` [Example 63] was tested. Which inhibition at 10 µM did it give?
**A.** < 50%

**Q.** With `CCc1nc(NCCN(C)C)nc(Nc2ncc(C(=O)Nc3c(C)cccc3C)s2)n1` [Example 71] as the molecule, how does the inhibition at 10 µM read?
**A.** > 90%

**Q.** With `Cc1nc(Nc2ncc(C(=O)Nc3c(C)cccc3Cl)s2)nc(N2CCN(CCO)CC2)n1` [Example 5] as the molecule, how does the inhibition at 10 µM read?
**A.** > 90%
